Source: patent publication US8076488B2, “Bicyclic urea derivatives useful in the treatment of cancer and other disorders” (Bayer Healthcare LLC, priority 2003, dated 2011)
Counter-ions that a name gives are not always drawn.

The compounds below were run against T1, c-Raf kinase (Lck-activated c-Raf, Raf-1) (Homo sapiens, UniProt P04049) (assay: c-Raf (Raf-1) biochemical assay (radioactive filtermat assay, MEK-1 substrate)). Conditions: at 1 micromolar compound; 5 μM ATP, 32° C., 1 hour.
T1 construct: GST-c-Raf (from amino acid 302 to amino acid 648); made in house; host or cells: Sf9 insect cells (baculovirus; co-infection with full-length Lck)
Description: Biological Tests c-Raf (Raf-1) Biochemical Assay Purification of Proteins Used in the Assay
The c-Raf biochemical assay was performed with a c-Raf enzyme that was activated (phosphorylated) by Lck kinase. Lck-activated c-Raf (Lck/c-Raf) was produced in Sf9 insect cells by co-infecting cells with baculoviruses expressing, under the control of the polyhedrin promoter, GST-c-Raf (from amino acid 302 to amino acid 648) and Lck (full-length). Both baculoviruses were used at the multiplicity of infection of 2.5 and the cells were harvested 48 hours post infection.
MEK-1 protein was produced in Sf9 insect cells by infecting cells with the baculovirus expressing GST-MEK-1 (full-length) fusion protein at the multiplicity of infection of 5 and harvesting the cells 48 hours post infection. Similar purification procedure was used for GST-c-Raf 302-648 and GST-MEK-1.
Transfected cells were suspended at 100 mg of wet cell biomass per mL in a buffer containing 10 mM sodium phosphate, 140 mM sodium chloride pH 7.3, 0.5% Triton X-100 and the protease inhibitor cocktail. The cells were disrupted with Polytron homogenizer and centrifuged 30,000 g for 30 minutes. The 30,000 g supernatant was applied onto GSH-Sepharose. The resin was washed with a buffer containing 50 mM Tris, pH 8.0, 150 mM NaCl and 0.01% Triton X-100. The GST-tagged proteins were eluted with a solution containing 100 mM Glutathione, 50 mM Tris, pH 8.0, 150 mM NaCl and 0.01% Triton X-100. The purified proteins were dialyzed into a buffer containing 20 mM Tris, pH 7.5, 150 mM NaCl and 20% Glycerol.
Biochemical Assay Protocol and Results
The compounds were serially diluted in DMSO using three-fold dilutions to stock concentrations ranging typically from 50 μM to 20 nM (final concentrations in the assay range from 1 μM to 0.4 nM). The c-Raf biochemical assay was performed as a radioactive filtermat assay in 96-well Costar polypropylene plates (Costar 3365). The plates were loaded with 75 μL solution containing 50 mM HEPES pH 7.5, 70 mM NaCl, 80 ng of Lck/c-Raf and 1 μg MEK-1. Subsequently, 2 μL of the serially diluted individual compounds were added to the reaction, prior to the addition of ATP. The reaction was initiated with 25 μL ATP solution containing 5 μM ATP and 0.3 μCi [33P]-ATP. The plates were sealed and incubated at 32° C. for 1 hour. The reaction was quenched with the addition of 50 μl of 4% Phosphoric Acid and harvested onto P30 filtermats (PerkinElmer) using a Wallac Tomtec Harvester. Filtermats were washed with 1% Phosphoric Acid first and deinonized H2O second. The filters were dried in a microwave, soaked in scintillation fluid and read in a Wallac 1205 Betaplate Counter (Wallac Inc., Atlanta, Ga., U.S.A.). The results were expressed as percent inhibition. % Inhibition=[[…]]×100 where • Tib=(counts per minute with inhibitor)−(background) • Ti=(counts per minute without inhibitor)−(background)

T1 sequence (P04049 302-648): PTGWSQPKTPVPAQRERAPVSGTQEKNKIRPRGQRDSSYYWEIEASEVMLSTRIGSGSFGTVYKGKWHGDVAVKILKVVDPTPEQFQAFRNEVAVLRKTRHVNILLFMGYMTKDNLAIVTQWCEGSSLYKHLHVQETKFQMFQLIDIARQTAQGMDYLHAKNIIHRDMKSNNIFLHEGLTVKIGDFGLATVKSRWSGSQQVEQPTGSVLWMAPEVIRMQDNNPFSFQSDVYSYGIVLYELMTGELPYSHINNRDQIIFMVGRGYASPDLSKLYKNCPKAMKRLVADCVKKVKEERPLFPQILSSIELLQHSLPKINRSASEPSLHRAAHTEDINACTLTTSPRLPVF

SMILES	inhibition at 1 µM
CNC(=O)c1cc(Oc2ccc(NC(=O)Nc3nc4ccc(OC(F)(F)F)cc4s3)cc2)ccn1 [Example 12]	> 40%
COC(=O)c1cc(Oc2cccc(NC(=O)Nc3ccc4c(cnn4C)c3)c2)ccn1 [Example 2, Methyl 4-[3-({[(1-methyl-1H-indazol-5-yl)amino]carbonyl}amino)phenoxy]-pyridine-2-carboxylate]	> 40%
CNC(=O)c1cc(Oc2ccc(NC(=O)Nc3ccc4nc(C)oc4c3)cc2)ccn1 [Example 6]	> 40%
CNC(=O)c1cc(Oc2ccc(NC(=O)Nc3ccc4c(c3)OC(F)(F)C(F)(F)O4)c(C(F)(F)F)c2)ccn1 [Example 64]	> 40%
COCCNC(=O)c1cc(Oc2ccc(NC(=O)Nc3ccc4c(cnn4C)c3)c(F)c2)ccn1 [Example 99]	> 40%
CC(=O)c1cc(Oc2ccc(NC(=O)Nc3ccc4c(cnn4C)c3)cc2)ccn1 [Example 3, N-{4-[(2-acetylpyridin-4-yl)oxy]phenyl}-N′-(1-methyl-1H-indazol-5-yl)urea]	> 40%
CNC(=O)c1cc(Oc2ccc(NC(=O)Nc3ccc4nn(C)cc4c3)cc2)ccn1 [Example 9]	> 40%
CNC(=O)c1cc(Oc2ccc(NC(=O)Nc3cccc4c3CCC4)cc2)ccn1 [Example 7]	> 40%
CNC(=O)c1cc(Oc2cccc(NC(=O)Nc3ccc4[nH]ncc4c3)c2)ccn1 [Example 108, 4-(3-{[(1H-indazol-5-ylamino)carbonyl]amino}phenoxy)-N-methylpyridine-2-carboxamide dihydrochloride]	> 40%
CCn1c(C)nc2cc(NC(=O)Nc3ccc(Oc4ccnc(C(=O)NC)c4)cc3)ccc21 [Example 29]	> 40%
CNC(=O)c1cc(Oc2ccc(NC(=O)Nc3ccc4nccnc4c3)cc2)ccn1 [Example 17]	> 40%
CNC(=O)c1cc(COc2cccc(NC(=O)Nc3ccc4c(cnn4C)c3)c2)ccn1 [Example 89]	> 40%
Cn1ncc2cc(NC(=O)Nc3ccc(Oc4ccnc(C(=O)NCCCn5ccnc5)c4)cc3)ccc21 [Example 160]	> 40%
CNC(=O)c1cc(Oc2ccc(NC(=O)Nc3ccc4[nH]c(C(F)(F)F)nc4c3)cc2)ccn1 [Example 28]	> 40%
NC(=O)c1cc(Oc2ccc(NC(=O)Nc3ccc4c(c3)CCC4)c(Cl)c2)ccn1 [Example 95]	> 40%
CNC(=O)c1cc(Oc2ccc(NC(=O)Nc3ccc4c(c3)CCC4=O)cc2)ccn1 [Example 22]	> 40%
CCN(CC)CCn1ccc2cc(NC(=O)Nc3ccc(Oc4ccnc(C(=O)NC)c4)cc3F)ccc21 [Example 44]	> 40%

SMILES	inhibition at 1 µM
CNC(=O)c1cc(Oc2ccc(NC(=O)Nc3nc4c(F)cc(F)cc4s3)cc2)ccn1 [Example 103]	> 40%
Cn1ncc2cc(NC(=O)Nc3ccc(Oc4ccnc(C(=O)NC5CCC5)c4)cc3)ccc21 [Example 163]	> 40%
CNC(=O)c1cc(Oc2ccc(NC(=O)Nc3ccc4[nH]nnc4c3)cc2)ccn1 [Example 26]	> 40%
CN(C)C(=O)CNC(=O)c1cc(Oc2ccc(NC(=O)Nc3ccc4c(cnn4C)c3)cc2)ccn1 [Example 100]	> 40%
CNC(=O)c1cc(Oc2ccc(NC(=O)Nc3ccc4[nH]c(C)cc4c3)cc2)ccn1 [Example 16]	> 40%
CNC(=O)c1cc(Oc2ccc(NC(=O)Nc3ccc4c(c3)CCN4S(C)(=O)=O)cc2)ccn1 [Example 31]	> 40%
CNC(=O)c1cc(Oc2ccc(NC(=O)Nc3ccc4c(c3)N(C(C)=O)CC4)cc2)ccn1 [Example 10]	> 40%
Cn1ncc2cc(NC(=O)Nc3cccc(Oc4ccnc(C(=O)NCCCn5ccnc5)c4)c3)ccc21 [Example 166]	> 40%
CNC(=O)c1cc(Oc2ccc(NC(=O)Nc3ccc4cn[nH]c4c3)cc2)ccn1 [Example 27]	> 40%
Cn1ncc2cc(NC(=O)Nc3ccc(Oc4ccnc(C(=O)NC5CC5)c4)cc3)ccc21 [Example 147, N-cyclopropyl-4-[4-({[(1-methyl-1H-indazol-5-yl)amino]-carbonyl}amino)phenoxy]pyridine-2-carboxamide]	> 40%
COC(=O)c1cc(Oc2ccc(NC(=O)Nc3ccc4c(cnn4C)c3)cc2)ccn1 [Example 98]	> 40%
CNC(=O)c1cc(Oc2ccc(NC(=O)Nc3nc4ccc([N+](=O)[O-])cc4s3)cc2)ccn1 [Example 102]	> 40%
CNC(=O)c1cc(Oc2ccc(NC(=O)Nc3ccc4sc(C)nc4c3)c(C(F)(F)F)c2)ccn1 [Example 65]	> 40%
CNC(=O)c1cc(COc2ccc(NC(=O)Nc3ccc4c(cnn4C)c3)cc2)ccn1 [Example 88]	> 40%
Cc1nc2cc(NC(=O)Nc3ccc(Oc4ccnc(C(N)=O)c4)cc3)ccc2s1 [Example 91]	> 40%
CNC(=O)c1cc(Oc2cccc(NC(=O)Nc3ccc4[nH]nnc4c3)c2)ccn1 [Example 37]	> 40%

The next lines start with the values.

inhibition at 1 µM	SMILES
> 40%	Cn1ncc2cc(NC(=O)Nc3ccc(Oc4ccnc(C(=O)NCCN5CCNCC5)c4)cc3)ccc21 [Example 157]
> 40%	O=C(Nc1ccc(Oc2ccnc(C(=O)Nc3ccccn3)c2)cc1)Nc1ccc2c(c1)C(F)(F)OC(F)(F)O2 [Example 155]
> 40%	Cn1ncc2cc(NC(=O)Nc3ccc(Oc4ccnc(C(=O)NCCN5CCCC5)c4)cc3)ccc21 [Example 156]
> 40%	CNC(=O)c1cc(Oc2ccc(NC(=O)Nc3ccc4c(c3)OCO4)cc2)ccn1 [Example 135]
> 40%	CNC(=O)c1cc(Oc2ccc(NC(=O)Nc3ccc4c(c3)C(F)(F)OC(F)(F)O4)cc2Cl)ccn1 [Example 115]
> 40%	CNC(=O)c1cc(Oc2ccc(NC(=O)Nc3cccc4c3OC(F)(F)C(F)(F)O4)cc2)ccn1 [Example 132]
> 40%	COC(=O)c1cncc(Oc2ccc(NC(=O)Nc3ccc4c(c3)C(F)(F)OC(F)(F)O4)cc2)c1 [Example 122]
> 40%	O=C(Nc1ccc(Oc2ccnc(C(=O)NCCN3CCCC3)c2)cc1)Nc1ccc2c(c1)C(F)(F)OC(F)(F)O2 [Example 146, N-(2-pyrrolidin-1-ylethyl)4-[4-({[(2,2,4,4-tetrafluoro-4H-1,3-benzodioxin-6-yl)-amino]carbonyl}amino)phenoxy]pyridine-2-carboxamide]
> 40%	Cn1ncc2cc(NC(=O)Nc3ccc(Oc4ccnc(C(=O)NCCN5CCCCC5)c4)cc3)ccc21 [Example 161]
> 40%	COC(=O)c1cc(Oc2cccc(NC(=O)Nc3ccc4c(c3)C(F)(F)OC(F)(F)O4)c2)ccn1 [Example 105, Methyl 4-[3-({[(2,2,4,4-tetrafluoro-4H-1,3-benzodioxin-6-yl)amino]-carbonyl}amino)phenoxy]pyridine-2-carboxylate]
> 40%	NC(=O)c1cc(Oc2cc(F)c(NC(=O)Nc3ccc4c(c3)C(F)(F)OC(F)(F)O4)c(F)c2)ccn1 [Example 150, 4-[3,5-difluoro-4-({[(2,2,4,4-tetrafluoro-4H-1,3-benzodioxin-6-yl)amino]-carbonyl}amino)phenoxy]pyridine-2-carboxamide]
> 40%	CNC(=O)c1cc(Oc2cccc(NC(=O)Nc3ccc4c(c3)C(F)(F)OC(F)(F)O4)c2)ccn1 [Example 117]
> 40%	O=C(Nc1cccc(Oc2ccnc(C(=O)NCCN3CCCC3)c2)c1)Nc1ccc2c(c1)C(F)(F)OC(F)(F)O2 [Example 168]
> 40%	CNC(=O)c1cc(Oc2ccc(NC(=O)Nc3ccc4c(c3)OC(F)(F)O4)cc2)ccn1 [Example 20]
> 40%	Cn1ncc2cc(NC(=O)Nc3cccc(Oc4ccnc(C(=O)NCCN5CCCCC5)c4)c3)ccc21 [Example 148, 4-[3-({[(1-methyl-1H-indazol-5-yl)amino]carbonyl}amino)phenoxy]-N-(2-piperidin-1-ylethyl)pyridine-2-carboxamide]
> 40%	O=C(Nc1ccc(Oc2ccnc(C(=O)NCCN3CCCCC3)c2)cc1)Nc1ccc2c(c1)C(F)(F)OC(F)(F)O2 [Example 153]
